Laboratory results from patent US10245261B2, “Substituted indol-5-ol derivatives and their therapeutic applications” (NantBioScience, Inc., priority 2013, dated 2019).

What was measured:
Test in all cases: KinaseProfiler kinase assay
Type in all cases: biochemical
DAPK2(h) = DAPK2(h) (Homo sapiens, UniProt Q9UIK4)
In short: (§1)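 Each enzyme was assayed radiometrically: 40 min room-temperature reaction with [γ-33P]ATP and 10 mM Mg acetate, acid-stopped, filtered, scintillation-counted.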

[1] = biological target: PI3 Kinase (p110δ/p85α)(h) (Homo sapiens, UniProt O00329)
In short: as §1

IGF-1R(h), activated = IGF-1R(h), activated (Homo sapiens, UniProt P08069)
In short: as §1

[2] = biological target: PI3 Kinase (p110α/p85α)(m) (Mus musculus, UniProt P42337)
In short: as §1

Met(M1268T)(h) = Met(M1268T)(h) (Homo sapiens, UniProt P08581, M1250T)
In short: as §1

CaMKIIβ(h) = CaMKIIβ(h) (Homo sapiens, UniProt Q13554)
In short: as §1

EGFR(T790M)(h) = EGFR(T790M)(h) (Homo sapiens, UniProt P00533, T790M)
In short: as §1

Flt3(D835Y)(h) = Flt3(D835Y)(h) (Homo sapiens, UniProt P36888, D835Y)
In short: as §1

Bmx(h) = Bmx(h) (Homo sapiens, UniProt P51813)
In short: as §1

TLK2(h) = TLK2(h) (Homo sapiens, UniProt Q86UE8)
In short: as §1

BTK(h) = BTK(h) (Homo sapiens, UniProt Q06187)
In short: as §1

[3] = biological target: PI3 Kinase (p110α/p65α)(h) (Homo sapiens, UniProt P42336)
In short: as §1

Met(D1246N)(h) = Met(D1246N)(h) (Homo sapiens, UniProt P08581, D1228N)
In short: as §1

ROCK-I(h) = ROCK-I(h) (Homo sapiens, UniProt Q13464)
In short: as §1

NEK7(h) = NEK7(h) (Homo sapiens, UniProt Q8TDX7)
In short: as §1

MAPKAP-K2(h) = MAPKAP-K2(h) (Homo sapiens, UniProt P49137)
In short: as §1

[4] = biological target: PI3 Kinase (p110α(E545K)/p85α)(m) (Mus musculus, UniProt P42337, E545K)
In short: as §1

MSSK1(h) = MSSK1(h) (Homo sapiens, UniProt Q9UPE1)
In short: as §1

CDK2/cyclinE(h) = CDK2/cyclinE(h) (Homo sapiens, UniProt P24941)
In short: as §1

JAK3(h) = JAK3(h) (Homo sapiens, UniProt P52333)
In short: as §1

CK2α2(h) = CK2α2(h) (Homo sapiens, UniProt P19784)
In short: as §1

CaMKIV(h) = CaMKIV(h) (Homo sapiens, UniProt Q16566)
In short: as §1

cKit(V654A)(h) = cKit(V654A)(h) (Homo sapiens, UniProt P10721, V654A)
In short: as §1

CHK1(h) = CHK1(h) (Homo sapiens, UniProt O14757)
In short: as §1

BTK(R28H)(h) = BTK(R28H)(h) (Homo sapiens, UniProt Q06187, R28H)
In short: as §1

CDK7/cyclinH/MAT1(h) = CDK7/cyclinH/MAT1(h) (Homo sapiens, UniProt P50613)
In short: as §1

Haspin(h) = Haspin(h) (Homo sapiens, UniProt Q8TF76)
In short: as §1

PAK4(h) = PAK4(h) (Homo sapiens, UniProt O96013)
In short: as §1

[5] = biological target: PI3 Kinase (p110α/p65α)(m) (Mus musculus, UniProt P42337)
In short: as §1

mTOR/FKBP12(h) = mTOR/FKBP12(h) (Homo sapiens, UniProt P42345)
In short: as §1

IGF-1R(h), activated, sequence (P08069 959-1367): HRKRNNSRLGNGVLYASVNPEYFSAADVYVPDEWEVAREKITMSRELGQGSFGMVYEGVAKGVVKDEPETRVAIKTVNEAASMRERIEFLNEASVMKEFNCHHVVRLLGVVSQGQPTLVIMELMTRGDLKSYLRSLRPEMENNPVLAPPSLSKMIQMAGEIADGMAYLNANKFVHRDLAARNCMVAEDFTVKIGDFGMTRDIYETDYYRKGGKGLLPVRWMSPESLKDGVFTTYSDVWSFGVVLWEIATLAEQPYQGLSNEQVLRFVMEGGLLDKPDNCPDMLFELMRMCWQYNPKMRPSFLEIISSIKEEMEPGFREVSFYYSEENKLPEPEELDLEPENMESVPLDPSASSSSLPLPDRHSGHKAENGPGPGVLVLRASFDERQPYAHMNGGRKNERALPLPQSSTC
mTOR/FKBP12(h), sequence (P42345 1362-2549): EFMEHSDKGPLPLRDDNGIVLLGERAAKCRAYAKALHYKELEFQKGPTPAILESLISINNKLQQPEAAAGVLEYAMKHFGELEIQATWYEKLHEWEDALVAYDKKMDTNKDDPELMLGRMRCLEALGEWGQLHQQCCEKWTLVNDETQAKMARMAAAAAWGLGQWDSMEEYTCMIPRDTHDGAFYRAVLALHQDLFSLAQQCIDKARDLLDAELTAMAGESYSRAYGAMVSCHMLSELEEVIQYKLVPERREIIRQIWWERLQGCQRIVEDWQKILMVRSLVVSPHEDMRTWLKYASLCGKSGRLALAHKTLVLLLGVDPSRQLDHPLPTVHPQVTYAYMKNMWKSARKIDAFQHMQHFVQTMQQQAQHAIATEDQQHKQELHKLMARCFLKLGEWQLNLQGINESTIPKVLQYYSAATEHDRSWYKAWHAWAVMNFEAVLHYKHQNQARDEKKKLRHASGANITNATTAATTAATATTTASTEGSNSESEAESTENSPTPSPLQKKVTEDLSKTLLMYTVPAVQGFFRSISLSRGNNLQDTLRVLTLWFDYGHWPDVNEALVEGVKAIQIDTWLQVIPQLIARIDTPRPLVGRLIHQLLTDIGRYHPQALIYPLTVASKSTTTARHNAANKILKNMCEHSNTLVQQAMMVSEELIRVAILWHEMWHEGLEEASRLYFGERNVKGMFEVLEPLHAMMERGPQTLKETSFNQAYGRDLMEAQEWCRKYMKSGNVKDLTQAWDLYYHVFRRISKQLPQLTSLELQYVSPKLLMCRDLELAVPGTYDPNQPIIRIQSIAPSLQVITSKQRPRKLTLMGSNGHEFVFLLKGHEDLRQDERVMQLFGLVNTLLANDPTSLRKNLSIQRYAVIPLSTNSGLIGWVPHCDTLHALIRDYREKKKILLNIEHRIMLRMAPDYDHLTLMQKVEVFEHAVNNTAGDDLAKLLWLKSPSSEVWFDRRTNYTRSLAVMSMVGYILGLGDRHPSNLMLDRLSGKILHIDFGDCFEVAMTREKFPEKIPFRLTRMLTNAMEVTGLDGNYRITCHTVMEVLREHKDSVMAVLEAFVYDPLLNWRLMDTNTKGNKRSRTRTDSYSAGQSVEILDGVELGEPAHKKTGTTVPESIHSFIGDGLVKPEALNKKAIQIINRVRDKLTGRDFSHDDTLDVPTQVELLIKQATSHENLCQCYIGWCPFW
PAK4(h), sequence (O96013 whole entry): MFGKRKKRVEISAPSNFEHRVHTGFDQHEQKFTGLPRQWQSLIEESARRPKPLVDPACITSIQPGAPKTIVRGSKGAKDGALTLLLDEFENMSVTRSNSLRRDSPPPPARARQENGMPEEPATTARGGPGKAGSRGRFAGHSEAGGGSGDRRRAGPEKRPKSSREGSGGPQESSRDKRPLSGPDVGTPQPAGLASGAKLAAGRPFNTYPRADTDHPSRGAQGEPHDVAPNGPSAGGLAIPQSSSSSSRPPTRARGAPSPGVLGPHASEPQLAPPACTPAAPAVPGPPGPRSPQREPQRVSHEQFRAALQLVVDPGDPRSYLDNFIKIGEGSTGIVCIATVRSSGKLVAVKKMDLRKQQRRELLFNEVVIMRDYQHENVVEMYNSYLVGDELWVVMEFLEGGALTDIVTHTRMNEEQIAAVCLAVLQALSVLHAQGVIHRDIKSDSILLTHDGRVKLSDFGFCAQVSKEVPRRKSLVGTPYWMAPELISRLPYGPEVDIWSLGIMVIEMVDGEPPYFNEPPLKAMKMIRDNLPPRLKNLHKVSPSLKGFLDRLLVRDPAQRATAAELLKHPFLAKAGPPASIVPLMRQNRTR
Haspin(h), sequence (Q8TF76 whole entry): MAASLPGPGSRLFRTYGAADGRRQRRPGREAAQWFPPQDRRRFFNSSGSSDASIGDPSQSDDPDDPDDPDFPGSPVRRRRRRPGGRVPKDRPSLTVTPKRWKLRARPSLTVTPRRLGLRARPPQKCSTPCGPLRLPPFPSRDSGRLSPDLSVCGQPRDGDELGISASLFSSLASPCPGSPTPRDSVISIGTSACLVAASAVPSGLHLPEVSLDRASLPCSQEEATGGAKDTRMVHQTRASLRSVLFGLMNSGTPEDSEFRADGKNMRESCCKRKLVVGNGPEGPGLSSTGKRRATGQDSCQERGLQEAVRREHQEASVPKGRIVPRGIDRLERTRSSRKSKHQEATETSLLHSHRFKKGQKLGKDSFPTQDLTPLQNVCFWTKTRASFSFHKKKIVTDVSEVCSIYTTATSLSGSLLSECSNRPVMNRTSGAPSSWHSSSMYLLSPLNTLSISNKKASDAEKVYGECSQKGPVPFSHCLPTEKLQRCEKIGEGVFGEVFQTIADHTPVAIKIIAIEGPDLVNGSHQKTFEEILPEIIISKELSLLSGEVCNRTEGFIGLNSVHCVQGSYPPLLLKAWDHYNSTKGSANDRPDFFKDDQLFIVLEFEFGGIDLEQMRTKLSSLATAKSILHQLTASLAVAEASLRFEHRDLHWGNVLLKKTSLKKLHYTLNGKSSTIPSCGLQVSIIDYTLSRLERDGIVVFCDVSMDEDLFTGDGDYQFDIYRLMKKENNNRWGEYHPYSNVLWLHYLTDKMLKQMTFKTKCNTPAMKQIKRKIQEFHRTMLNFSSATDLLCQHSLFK
BTK(R28H)(h), sequence (Q06187 whole entry R28H): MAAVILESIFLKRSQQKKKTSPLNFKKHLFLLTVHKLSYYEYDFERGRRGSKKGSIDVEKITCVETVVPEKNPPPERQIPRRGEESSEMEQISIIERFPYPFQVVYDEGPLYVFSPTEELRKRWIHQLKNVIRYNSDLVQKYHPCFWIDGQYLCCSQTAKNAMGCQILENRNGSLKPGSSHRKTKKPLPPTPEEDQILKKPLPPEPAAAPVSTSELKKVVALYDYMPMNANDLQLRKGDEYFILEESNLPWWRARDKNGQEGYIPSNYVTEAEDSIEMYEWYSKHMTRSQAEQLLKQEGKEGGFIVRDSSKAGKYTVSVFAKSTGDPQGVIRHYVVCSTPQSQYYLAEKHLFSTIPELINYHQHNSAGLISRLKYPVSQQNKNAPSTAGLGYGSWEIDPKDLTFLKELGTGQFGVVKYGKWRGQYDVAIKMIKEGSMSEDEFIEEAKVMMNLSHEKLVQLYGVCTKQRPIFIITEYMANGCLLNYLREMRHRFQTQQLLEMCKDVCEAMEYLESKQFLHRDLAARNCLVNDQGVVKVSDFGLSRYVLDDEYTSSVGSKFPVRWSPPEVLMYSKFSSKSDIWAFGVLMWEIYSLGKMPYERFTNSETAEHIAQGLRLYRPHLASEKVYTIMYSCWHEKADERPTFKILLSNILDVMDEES
Met(D1246N)(h), sequence (P08581 25-1408 isoform P08581-2 D1246N): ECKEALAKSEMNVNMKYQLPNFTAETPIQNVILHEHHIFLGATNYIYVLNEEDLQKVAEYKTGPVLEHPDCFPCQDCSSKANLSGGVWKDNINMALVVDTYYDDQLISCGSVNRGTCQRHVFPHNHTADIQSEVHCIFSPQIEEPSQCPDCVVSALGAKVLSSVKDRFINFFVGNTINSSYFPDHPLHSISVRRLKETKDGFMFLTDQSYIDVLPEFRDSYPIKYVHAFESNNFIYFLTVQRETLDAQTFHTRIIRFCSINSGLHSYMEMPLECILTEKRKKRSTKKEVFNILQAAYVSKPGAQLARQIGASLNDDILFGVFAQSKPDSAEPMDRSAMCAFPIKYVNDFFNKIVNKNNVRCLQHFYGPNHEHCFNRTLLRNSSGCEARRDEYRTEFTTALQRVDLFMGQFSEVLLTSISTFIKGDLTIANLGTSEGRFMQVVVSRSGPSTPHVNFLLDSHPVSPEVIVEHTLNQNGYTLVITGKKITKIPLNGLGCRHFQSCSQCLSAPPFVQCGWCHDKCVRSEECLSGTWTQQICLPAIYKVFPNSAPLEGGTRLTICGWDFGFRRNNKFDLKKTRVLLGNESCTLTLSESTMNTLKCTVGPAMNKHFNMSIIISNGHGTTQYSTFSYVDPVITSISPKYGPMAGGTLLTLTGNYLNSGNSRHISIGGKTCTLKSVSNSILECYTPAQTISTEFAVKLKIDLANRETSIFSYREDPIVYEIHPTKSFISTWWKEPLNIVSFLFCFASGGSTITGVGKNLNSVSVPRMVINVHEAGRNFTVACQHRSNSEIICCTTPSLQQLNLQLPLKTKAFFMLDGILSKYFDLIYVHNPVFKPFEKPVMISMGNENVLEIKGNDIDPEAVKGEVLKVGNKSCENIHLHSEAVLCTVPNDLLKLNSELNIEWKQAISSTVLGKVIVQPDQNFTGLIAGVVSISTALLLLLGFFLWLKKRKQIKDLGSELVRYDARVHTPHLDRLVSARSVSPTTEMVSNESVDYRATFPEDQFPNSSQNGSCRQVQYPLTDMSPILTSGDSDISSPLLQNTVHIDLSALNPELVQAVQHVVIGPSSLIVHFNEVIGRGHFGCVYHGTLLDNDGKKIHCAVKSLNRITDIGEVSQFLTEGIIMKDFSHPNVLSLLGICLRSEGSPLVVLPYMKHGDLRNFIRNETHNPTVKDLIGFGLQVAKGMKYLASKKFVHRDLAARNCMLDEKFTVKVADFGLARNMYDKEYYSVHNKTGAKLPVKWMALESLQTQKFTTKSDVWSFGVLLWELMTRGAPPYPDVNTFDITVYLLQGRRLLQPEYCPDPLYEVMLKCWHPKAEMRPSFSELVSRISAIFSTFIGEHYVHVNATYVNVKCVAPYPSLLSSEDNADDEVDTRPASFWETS
BTK(h), sequence (Q06187 whole entry): as the sequence (Q06187 whole entry R28H) above, with H28R counted along it

Row | SMILES | inhibition at 0.1 µM (DAPK2(h)) | inhibition at 0.1 µM [1] | inhibition at 0.1 µM (IGF-1R(h), activated) | inhibition at 0.1 µM [2] | inhibition at 0.1 µM (Met(M1268T)(h)) | inhibition at 0.1 µM (CaMKIIβ(h)) | inhibition at 0.1 µM (EGFR(T790M)(h)) | inhibition at 0.1 µM (Flt3(D835Y)(h)) | inhibition at 0.1 µM (Bmx(h)) | inhibition at 0.1 µM (TLK2(h)) | inhibition at 0.1 µM (BTK(h)) | inhibition at 0.1 µM [3] | inhibition at 0.1 µM (Met(D1246N)(h)) | inhibition at 0.1 µM (ROCK-I(h)) | inhibition at 0.1 µM (NEK7(h)) | inhibition at 0.1 µM (MAPKAP-K2(h)) | inhibition at 0.1 µM [4] | inhibition at 0.1 µM (MSSK1(h)) | inhibition at 0.1 µM (CDK2/cyclinE(h)) | inhibition at 0.1 µM (JAK3(h)) | other results
1 | Cc1cc2c(F)c(Oc3nc(Nc4cc(C5CC5)[nH]n4)cc(N4CCN(C)CC4)n3)ccc2[nH]1 [Compound 10] | -16% | 2% | 59% | 1% | 91% | -5% | 17% | 99% | 98% | 69% | 50% | -6% | 80% | -15% | 8% | -7% | 0% | 22% | 1% | 86% | inhibition at 0.1 µM (CK2α2(h)): -13%; inhibition at 0.1 µM (CaMKIV(h)): -25%; inhibition at 0.1 µM (cKit(V654A)(h)): 35%; inhibition at 0.1 µM (CHK1(h)): 16%; inhibition at 0.1 µM (BTK(R28H)(h)): 10%; inhibition at 0.1 µM (CDK7/cyclinH/MAT1(h)): 44%; inhibition at 0.1 µM (Haspin(h)): 0%; inhibition at 0.1 µM (PAK4(h)): 29%; inhibition at 0.1 µM [5]: -1%; inhibition at 0.1 µM (mTOR/FKBP12(h)): -14%
2 | Cc1cc2c(F)c(Oc3nc(Nc4cc(C5CC5)[nH]n4)cc(N4CCNCC4)n3)ccc2[nH]1 [Compound 11, N-(5-cyclopropyl-1H-pyrazol-3-yl)-2-((4-fluoro-2-methyl-1H-indol-5-yl)oxy)-6-(piperazin-1-yl)pyrimidin-4-amine] | -6% | -1% | 65% | -1% | 72% | 8% | 30% | 101% | 99% | 70% | 71% | -1% | 84% | -15% | -5% | -10% | 1% | 0% | 3% | 86% | inhibition at 0.1 µM (CK2α2(h)): 8%; inhibition at 0.1 µM (CaMKIV(h)): -1%; inhibition at 0.1 µM (cKit(V654A)(h)): 53%; inhibition at 0.1 µM (CHK1(h)): 0%; inhibition at 0.1 µM (BTK(R28H)(h)): -7%; inhibition at 0.1 µM (CDK7/cyclinH/MAT1(h)): 26%; inhibition at 0.1 µM (Haspin(h)): -11%; inhibition at 0.1 µM (PAK4(h)): 23%; inhibition at 0.1 µM [5]: 2%; inhibition at 0.1 µM (mTOR/FKBP12(h)): -9%
